Assay results taken from patent US4918056A, “2-substituted arabinopyranosyl nucleosides and nucleotides” (priority 1986, dated 1990).

Legend:
L1210 leukemia cells [1] = test: Reversal of L1210 growth inhibition by salvageable nucleosides; type: cell-based, mouse; conditions: for IC50: Mus musculus
Method: Reversal studies were conducted as follows: […], 85027 or 5-FdUr were added at various concentrations near their IC50 to cultures of L1210 leukemia cells, maintained in PRMI 1640 medium supplemented with 10% fetal calf serum and 16mM HEPES, pH 7.2 as described in Example 9. Nucleosides including thymidine (1×10^-5 M), uridine (1×10^-4 M), deoxyuridine ([…]), adenosine (1×10^-4 M), or guanosine (1×10^-5 M) were also added to identical drug (85024, 85027 or 5-FdUr) containing L1210 leukemia cultures. Cellular growth inhibition or its prevention by the addition of salvageable nucleosides was determined 48 hours later by counting cells using an electronic Coulter Counter.

L1210 leukemia = test: Therapeutic activity of 85027, 5-FU and ara-C in DBA/2 mice with L1210 leukemia; type: in vivo, mouse (DBA/2); set-up: Mean ± SD survival: unit not given here; conditions: for Median survival: control 6; for Mean ± SD survival: control 6.4 ± 0.2
Method: The therapeutic activity of 85027 was compared with that of 5-Fluorouracil (5-FU) and Cytosine Arabinoside (ara-C) in DBA/2 mice with L1210 Leukemia. (Table 3) Tests were performed in accordance with the procedure described in Example 8. […] 5-FU was administered i.p. on days 1,3 and 6.

L1210 leukemia cells [2] = test: L1210 leukemia cell growth inhibition (48 hr, Coulter counter); type: cell-based, mouse; conditions: for IC50: Mus musculus, L1210, RPMI 1640, 10% fetal calf serum; for growth inhibitory activity in words: compared with 85024
Method: Compounds 85024, 85023, 85058, 85027 and 85060 having a glycosidic linkage between the 2'carbon of the arabinose (in pyranose configuration) and base were evaluated for their growth inhibitory action on L1210 leukemia cells maintained in RPMI 1640 medium supplemented with 10% fetal calf serum and 16 mM HEPES, pH 7.2. Cellular growth inhibition was determined by incubating […] for 48 hr in 2 ml of media containing varying concentrations of drugs. Cell growth inhibition (50% growth inhibitory concentration, IC50) was determined after counting cells with a Coulter counter (Bernacki et al., Cancer Res. 45, 695, 1985). Drug concentrations which inhibited cell growth by 50% (IC50) are listed for each compound in Table 1.

L1210/ara-C leukemia = test: Therapeutic activity in DBA/2N mice with ara-C resistant L1210 leukemia
Method: (§1) In conducting the evaluations, the activity was tested against intraperitoneal (i.p.) implanted leukemia in mice.
(§2) DBA/2N female mice (20 g) were implanted i.p. with 1×10^6 L1210 leukemia cells on day 0. Mice were weighed and inspected for tumor growth and survival daily. […] Dosages varied from 1 to 800 mg/kg/day (mkd).
(§3) Survival time was measured in days after tumor implantation. % ILS (increase in life span) was based on mean survival.
(§4) Testing was followed as described in the NCI protocol and evaluation by comparison of median survival time (ST) of the treated animals to that of the control animals by the percentage increase in % ILS.
(§5) Drug resistant L1210 leukemia cell sublines were obtained from the National Cancer Institute. […] Eight mice were used as controls and five mice for each drug dosage group. Drugs were administered i.p. once per day on days 1, 2, 3, 4 and 5.

L1210/5-FU leukemia = test: Therapeutic activity in DBA/2N mice with 5-FU resistant L1210 leukemia; type: in vivo, mouse (DBA/2N female)
Method: as §1, §2, §3, §4, §5

[3] = 5 mkd i.p. (head: × 5; text: × 3, days 1, 3 and 6)
[4] = 25 mkd i.p. (head: × 5; text: × 3, days 1, 3 and 6)

Compound: COC1OC[C@@H](OC(C)=O)[C@@H](OC(C)=O)[C@]1(F)n1cc(F)c(=O)[nH]c1=O (stereo partly drawn) [compound 85027, Methyl 3,4-di-0-acetyl-2-deoxy-2(R)-[1H,3H-2,4-dioxo-5-fluoro-1-pyrimidinyl]-2-fluoro-α-D-arabinopyranoside [5b] and Methyl 3,4-di-0-acetyl-2-deoxy-2(R)-[1H,3H-2,4-dioxo-5-fluoro-1-pyrimidinyl]-2-fluoro-β-D-arabinopyranoside[6b]]
- reversal of cellular cytotoxicity by exogenous nucleosides (L1210 leukemia cells [1]; exogenous thymidine, uridine or deoxyuridine, tissue culture): not reversed by exogenous thymidine, uridine or deoxyuridine
- effect of added nucleoside on the IC50 (L1210 leukemia cells [1]; thymidine (1×10^-5 M), uridine (1×10^-4 M) or deoxyuridine (1×10^-5 M)): < 10%
- Survival Range (L1210 leukemia; 50 mkd × 5 i.p.): 8-8 days
- Median survival (L1210 leukemia; 50 mkd × 5 i.p.): 8 days
- Mean ± SD survival (L1210 leukemia; 50 mkd × 5 i.p.): 8 ± 0
- Survival Range (L1210 leukemia; 100 mkd × 5 i.p.): 7 to 8 days
- Median survival (L1210 leukemia; 100 mkd × 5 i.p.): 8 days
- Mean ± SD survival (L1210 leukemia; 100 mkd × 5 i.p.): 7.8 ± 0.2
- Survival Range (L1210 leukemia; 200 mkd × 5 i.p.): 8 to 9 days
- therapeutic activity compared with araC (L1210 leukemia; 200 mkd × 5 i.p.): less therapeutic activity than araC
- Median survival (L1210 leukemia; 200 mkd × 5 i.p.): 8 days
- Mean ± SD survival (L1210 leukemia; 200 mkd × 5 i.p.): 8.2 ± 0.22
- % ILS (increase in life span) (L1210 leukemia; 85027, 50 mkd × 5 i.p., p < 0.01): 25%
- % ILS (increase in life span) (L1210 leukemia; 85027, 100 mkd × 5 i.p., p < 0.05): 22%
- % ILS (increase in life span) (L1210 leukemia; 85027, 200 mkd × 5 i.p., p < 0.01): 29%
- IC50 (L1210 leukemia cells [2]): 34 µM
- cross resistance to ara-C and 5-FU (L1210/ara-C leukemia; summary of L1210/ara-C and L1210/5-FU tests): not cross resistant

Compound: COC1OC[C@@H](OC(C)=O)[C@@H](OC(C)=O)[C@]1(F)n1cc(C)c(=O)[nH]c1=O (stereo partly drawn) [compound 85060, Methyl 3,4-di-0-acetyl-2-deoxy-2(R)-[1H,3H-2,4-dioxo-5-methyl-1-pyrimidinyl]-2-fluoro-α-D-arabinopyranoside [5c] and Methyl 3,4-di-0-acetyl-2-deoxy-2(R)-[1H,3H-2,4-dioxo-5-methyl-1-pyrimidinyl]-2-fluoro-β-D-arabinopyranoside [6c]]
- IC50 (L1210 leukemia cells [2]): > 100 µM
- growth inhibitory activity in words (L1210 leukemia cells [2]): inactive

Compound: O=c1[nH]c(=O)n([C@H]2C[C@H](O)[C@@H](CO)O2)cc1F [5-FdUr, 5-Fluorodeoxyuridine, reference compound]
- IC50 (L1210 leukemia cells [1]; L1210, with 1×10^-5 M thymidine): > 0.01 µM
- IC50 (L1210 leukemia cells [1]; L1210, without added thymidine): 0.0003 µM

Compound: CCCCCC(=O)O[C@@H]1[C@H](OC(=O)CCCCC)COC(OC)[C@@]1(F)n1ccc(=O)[nH]c1=O (stereo partly drawn) [compound 85058, Methyl 2-deoxy-2(R)-[1H,3H-2,4-dioxo-1-pyrimidinyl]-2-fluoro-3,4-di-0-hexanoyl-α-D-arabinopyranoside [5d] and Methyl 2-deoxy-2(R)-[1H,3H-2,4-dioxo-1-pyrimidinyl]-2-fluoro-3,4-di-0-hexanoyl-β-D-arabinopyranoside [6d]]
- IC50 (L1210 leukemia cells [2]): 40 µM
- growth inhibitory activity in words (L1210 leukemia cells [2]): did not significantly affect activity

Compound: O=c1[nH]cc(F)c(=O)[nH]1 [5-FU, 5-Fluorouracil]
- % ILS (increase in life span) (L1210 leukemia; 5-FU, 5 mkd i.p. (head: × 5; text: × 3, days 1, 3 and 6), p < .01): 41%
- % ILS (increase in life span) (L1210 leukemia; 5-FU, 25 mkd i.p. (head: × 5; text: × 3, days 1, 3 and 6), p < .01): 88%
- % ILS (increase in life span) (L1210 leukemia; 5-FU, 50 mkd × 5 i.p., p < .01): 34%
- % ILS (increase in life span) (L1210 leukemia; 5-FU, 100 mkd × 5 i.p., p < .05): 22%
- % ILS (increase in life span) (L1210 leukemia; 5-FU, 200 mkd × 5 i.p., p < .05): 22%
- Survival Range (L1210 leukemia; [3]): 9-9 days
- Median survival (L1210 leukemia; [3]): 9 days
- Mean ± SD survival (L1210 leukemia; [3]): 9
- Survival Range (L1210 leukemia; [4]): 12-12 days
- Median survival (L1210 leukemia; [4]): 12 days
- Mean ± SD survival (L1210 leukemia; [4]): 12
- toxicity to mice (L1210 leukemia; 50, 100 and 200 mkd × 5 i.p.): extremely toxic to mice causing severe weight loss
- weight to which mice fell (severe weight loss) (L1210 leukemia; 50, 100 and 200 mkd × 5 i.p.): 13 to 14 g
- Survival Range (L1210 leukemia; 50 mkd × 5 i.p.): 8 to 9 days
- Median survival (L1210 leukemia; 50 mkd × 5 i.p.): 9 days
- Mean ± SD survival (L1210 leukemia; 50 mkd × 5 i.p.): 8.6 ± 0.2
- Survival Range (L1210 leukemia; 100 mkd × 5 i.p.): 7 to 8 days
- Median survival (L1210 leukemia; 100 mkd × 5 i.p.): 8 days
- Mean ± SD survival (L1210 leukemia; 100 mkd × 5 i.p.): 7.8 ± 0.2
- Survival Range (L1210 leukemia; 200 mkd × 5 i.p.): 7 to 8 days
- Median survival (L1210 leukemia; 200 mkd × 5 i.p.): 8 days
- Mean ± SD survival (L1210 leukemia; 200 mkd × 5 i.p.): 7.8 ± 0.2
- therapeutic effect (L1210/5-FU leukemia; 25 mkd × 5): did not
- % ILS (increase in life span) (L1210/5-FU leukemia; 25 mkd × 5 i.p.): 12%
- Mean Animal Weight (L1210/5-FU leukemia; 25 mkd × 5 i.p.): 17.6 g
- Survival Range (L1210/5-FU leukemia; 25 mkd × 5 i.p.): 5 to 9 days
- Median survival (L1210/5-FU leukemia; 25 mkd × 5 i.p., control 9): 8 days
- Mean ± SD survival (L1210/5-FU leukemia; 25 mkd × 5 i.p., control 9.25 ± 0.2): 7.6 ± 0.7 days

Compound: COC1OC[C@H]2OC(C)(C)O[C@H]2C1(F)n1ccc(=O)[nH]c1=O (mixture of isomers) [compound 85023, Methyl 2-deoxy-3,4-0-isopropylidene-2-rac-[1H,3H-2,4-dioxo-1-pyrimidinyl]-2-fluoro-α-D-arabinopyranoside [5g] and Methyl 2-deoxy-3,4-0-isopropylidene-2-rac-[1H,3H-2,4-dioxo-1-pyrimidinyl]-2-fluoro-β-D-arabinopyranoside [6g]]
- IC50 (L1210 leukemia cells [2]): > 100 µM
- growth inhibitory activity in words (L1210 leukemia cells [2]): loss in biological inactivity

Compound: Nc1ccn([C@@H]2O[C@H](CO)[C@@H](O)[C@@H]2O)c(=O)n1 [ara-C, Cytosine Arabinoside]
- Survival Range (L1210 leukemia; 50 mkd × 5 i.p.): 9 to 14 days
- Median survival (L1210 leukemia; 50 mkd × 5 i.p.): 14 days
- Mean ± SD survival (L1210 leukemia; 50 mkd × 5 i.p.): 13.0 ± 1.0
- Survival Range (L1210 leukemia; 100 mkd × 5 i.p.): 14 to 15 days
- Median survival (L1210 leukemia; 100 mkd × 5 i.p.): 14 days
- Mean ± SD survival (L1210 leukemia; 100 mkd × 5 i.p.): 14.4 ± 0.2
- Survival Range (L1210 leukemia; 200 mkd × 5 i.p.): 8 to 19 days
- Median survival (L1210 leukemia; 200 mkd × 5 i.p.): 9 days
- Mean ± SD survival (L1210 leukemia; 200 mkd × 5 i.p.): 12.4 ± 2.3
- % ILS (increase in life span) (L1210 leukemia; ara-C, 50 mkd × 5 i.p., p < .05): 104%
- % ILS (increase in life span) (L1210 leukemia; ara-C, 100 mkd × 5 i.p., p < .01): 126%
- % ILS (increase in life span) (L1210 leukemia; ara-C, 200 mkd × 5 i.p., p < .01): 95%
- effect on lifespan (L1210 leukemia; i.p. 5 day schedule, 50, 100 and 200 mg/kg): most effective causing a doubling of lifespan
- Survival Range (L1210/ara-C leukemia; 100 mkd × 5 i.p.): 7-7 days
- % ILS (increase in life span) (L1210/ara-C leukemia; 100 mkd × 5 i.p., NS): 0%
- Median survival (L1210/ara-C leukemia; 100 mkd × 5 i.p., control 7): 7 days
- Mean ± SD survival (L1210/ara-C leukemia; 100 mkd × 5 i.p., control 7.1 + 0.1): 0 days
- therapeutic effect (L1210/ara-C leukemia; mice with L1210/ara-C leukemia (Table 4)): no therapeutic effect
- Mean Animal Weight (L1210/ara-C leukemia; mouse, in vivo, ip): 20.0 g
